{"source": "patent US20030139438A1", "about": "“Diagnosis of the parkinsonian condition” (priority 2001, published 2003)", "key": {"dopamine levels": {"test_system": "dopamine levels", "assay": "Reserpine-induced dopamine depletion in rats", "type": "in vivo", "conditions": "3 mg/kg s.c., after 48 hours", "experimental": "(§1) Reserpine (3 mg/kg, s.c, in 3% glacial acetic acid) was administered to rats to deplete dopamine levels.\n(§2) In this situation the animals represent a model of pre-symptomatic subjects, i.e. they have a dopamine depletion but no symptoms."}, "actions of metenkephalin": {"test_system": "actions of metenkephalin", "assay": "Naloxone challenge in reserpine-treated rat model of pre-symptomatic subjects", "type": "in vivo, rats", "experimental": "as §1, §2\nThe parkinsonan symptoms were reversible and were not observed one hour after the naloxone injection where the animals returned to the presymptomatic state."}, "opioid receptor": {"test_system": "opioid receptor", "assay": "Naltrexone challenge in reserpine-treated rats, locomotor activity (Benwick monitors)", "type": "in vivo, Sprague-Dawley rats", "experimental": "Reserpine was administered to rats to deplete dopamine levels. […] In this situation the animals represent a model of pre-symptomatic patients, i.e. they have a dopamine depletion but no overt symptoms.\nMale Sprague-Dawley rats were split into two groups A and B. Rats in both groups received a subcutaneous administration of reserpine (3 mg/kg). The rats were allowed to recover for 48 hours post reserpine treatment at which point they are considered to represent a model of pre-symptomatic Parkinson's disease.\nAfter the 48 hours Group A were treated with vehicle (water) and group B were treated with naltrexone (10 mg/kg) and placed in locomotor monitoring apparatus (see below).\nThe locomotion of the rats in Groups A and B following either vehicle or naltrexone treatment was measured over the 5 minute period immediately after drug administration using Benwick locomotor monitors. These locomotion monitors consist of a visually-shielded open-field arena, the perimeter of which is surrounded by a series of infra-red beams arranged at 5 cm intervals. PC-based software (Amlogger) assesses the number of beams broken. The number of beams broken as part of a locomotor movement (activity counts) was measured."}, "striatal DA content": {"test_system": "striatal DA content", "assay": "Neurochemical analysis of striatal DA by HPLC with electrochemical detection", "type": "in vivo, Macaca fascicularis", "experimental": "(§3) Five monkeys were killed at the beginning of the study and were considered as day 0 (D0) controls. The remaining 20 were treated with daily (9:00 am) injections of MPTP hydrochloride (0.2 mg/kg, i.v.; Sigma, St Louis, Mo.) in saline according to a previously described protocol (Bezard et al., 1997 Neuroscience 81 p 399-404; Bezard et al., 1997 Brain Res. 766 p 107-112; and Bezard et al., 1999 Eur. J. Neurosci. 11 p 2167-2170). This protocol derives a reproducible MPTP cumulative dosing regime that leads to the first appearance of parkinsonian clinical signs after 15±1 injections (3.0±0.02 mg/kg). Five presymptomatic monkeys were killed on day 6 (i.e., after 6 injections; D6 Group), five presymptomatic monkeys at day 12 (i.e. after 12 injections; D12 group), five at day 15 after appearance of overt symptoms (i.e. after 15 injections; D15 group), and the remaining five fully parkinsonian monkeys at day 25 (i.e. after 15 injections; D25). All animals were killed by sodium pentobarbital overdose (150 mg/kg, i.v.) and the brains were removed quickly after death. Each brain was bisected along the midline and the two hemispheres were immediately frozen by immersion in isopentane (−45° C.) and then stored at −80° C. Tissue was sectioned at 20 μm in a cryostat at −17° C., thaw-mounted onto gelatin-subbed slides, dried on a slide warmer and stored at −80° C.\nThe extent of striatal DA denervation was assessed by measuring levels of DA, 3,4-dihydroxyphenylacetic acid (DOPAC) and homovanillic acid (HVA) in both the caudate nucleus and the putamen using high-pressure liquid chromatography with electrochemical detection as previously described (Bezard et al., 1997 Neuroscience 81 p399-404) with minor modifications. […] Pellets were retained for quantification of protein content by the Bradford assay (Bezard et al., 1997 Neuroscience 81 p 399-404). […] Concentrations of DA and metabolites were calculated using a computing integrator (Gold Nouveau V 1.6, Beckman). Mean and SEM values were calculated for both putamen and caudate nucleus for each group."}, "cynomolgus monkeys [1]": {"test_system": "cynomolgus monkeys", "assay": "Parkinsonian monkey rating scale after chronic MPTP administration", "type": "in vivo, Macaca fascicularis", "conditions": "scale 0-25", "experimental": "(§4) Experiments were conducted on twenty five female cynomolgus monkeys (Macaca fascicularis, Shared Animal Health, Beijing, PR of China; mean age=3.1. ±0.3 years; mean weight=2.8 ±0.2 kg). Animals were housed in individual primate cages under controlled conditions of humidity (50±5%0, temperature (24 ±1° C.), and light (12 h light/dark cycles), food and water were available ad libitum and their care supervised by veterinarians skilled in the healthcare and maintenance of nonhuman primates. Experiments were carried out in accordance with European Economic Community (86/6091/EEC) guidelines for care of laboratory animals. The effect of nontreatment on both motor behaviour and PPE-A expression had been previously compared with that of the administration of saline in order to rule out any possible interference. Accordingly MPTP-treated animals were compared with “nontreated” controls in this study. This procedure has been chosen to minimise the number of animals used. In addition, brain tissues acquired for the present experiments are being used for further experiments.\nas §3, with “Tissue was sectioned at 20 μm in a cryostat at −17° C., thaw-mounted onto gelatin-subbed slides, dried on a slide warmer and stored at −80° C.” left out\n(§5) Animal behavior was assessed daily (2 p.m) on a parkinsonian monkey rating scale (Bezard et al., 1997 Neuroscience 81 p399-404; and Bezard et al., 1997 Neuroreport 8 p435-438) using videotape recordings of monkeys in their cages in addition to clinical neurological evaluation. During each session two examiners evaluated the animals' levels of motor performance, coaxing them to perform various tasks by offering appetizing fruit. […]"}, "PPE-A mRNA": {"test_system": "PPE-A mRNA", "assay": "Preproenkephalin-A in situ hybridization in striatum", "type": "in vivo, Macaca fascicularis", "experimental": "as §3\nIn situ hybridization histochemistry was performed as previously described by Henry et al. (1999 Exp. Neurol. 155 p204-220) using a ^35S-radiolabeled oligonucleotide probe (Gibco BRL) corresponding to amino acids 130-145 of the human sequence of PPE-A. One microliter of the oligonucleotide was tailed by the isotope of 37° C. in a mixture containing 10 μl sterile water, 12.5 μl reaction buffer (sodium cocodylate 120 mM and dithiothreitol 100 mM), and 2 μl terminal deoxynucleotide transferase (all reagents DuPont/NEN) with 7 μl of [^35S] ATP (82.5 μCi, NEN). […] One microliter of this solution was counted by a liquid scintillation counter (Tricarb, 1500 Packard) to asses the efficiency of labeling. […]\nDensitomeric analysis of autoradiographs was performed using an image analysis system (Image Pro Plus, v3.0.01, Media Cybernetics L.P., Atlanta, Ga.) as previously described (Henry et al., supra). The optical density of the autoradiogram was assessed for the striatum at three rostrocaudal levels in accordance with the functional organisation of the striatum: a rostral level, including the caudate, putamen, and nucleus accumbens; a midlevel, including the caudate, putamen, and GPe; and a caudal level including the body of the caudate, the putamen, and both the GPe and GPi. […] Four sections per animal, per striatal level were analyzed by an examiner blind with regard to experimental condition. […]"}, "cynomolgus monkeys [2]": {"test_system": "cynomolgus monkeys", "assay": "Bradykinesia test (time to pick up three pieces of fruit) after chronic MPTP", "type": "in vivo, Macaca fascicularis", "conditions": "maximum 60 s", "experimental": "as §4\nas §3, with “Tissue was sectioned at 20 μm in a cryostat at −17° C., thaw-mounted onto gelatin-subbed slides, dried on a slide warmer and stored at −80° C.” left out\nas §5"}}, "data": [{"smiles": "COC(=O)[C@H]1[C@H]2C[C@@H]3c4[nH]c5cc(OC)ccc5c4CCN3C[C@H]2C[C@@H](OC(=O)c2cc(OC)c(OC)c(OC)c2)[C@@H]1OC", "note": "[Reserpine]", "values": [{"measurement": "dopamine level", "setting": "dopamine levels", "result": "not less than 20 % of normal levels"}]}, {"smiles": "C=CCN1CC[C@]23c4c5ccc(O)c4O[C@H]2C(=O)CC[C@@]3(O)[C@H]1C5", "note": "[naloxone]", "values": [{"measurement": "parkinsonian symptoms", "setting": "actions of metenkephalin; 10 mg/kg i.p., rats 48 hours after reserpine 3 mg/kg s.c.", "result": "parkinsonian symptoms became manifest"}, {"measurement": "parkinsonian symptoms one hour after the injection", "setting": "actions of metenkephalin; 10 mg/kg i.p., reserpine-treated rats", "result": "not observed"}, {"measurement": "parkinsonian symptoms in control animals not treated with reserpine", "setting": "actions of metenkephalin; naloxone without reserpine", "result": "No parkinsonian symtoms were seen"}]}, {"smiles": "O=C1CC[C@@]2(O)[C@H]3Cc4ccc(O)c5c4[C@@]2(CCN3CC2CC2)[C@H]1O5", "note": "[naltrexone]", "values": [{"measurement": "parkinsonian symptoms", "setting": "opioid receptor; 10 mg/kg i.p., rats 48 hours after reserpine", "result": "parkinsonian symptoms appeared"}, {"measurement": "activity counts versus vehicle treated group", "setting": "opioid receptor; 10 mg/kg, 5 minute period after administration, rats 48 hours after reserpine 3 mg/kg s.c., P<0.01", "result": "significantly less"}]}, {"smiles": "CN1CC=C(c2ccccc2)CC1", "note": "[MPTP, 1-methyl-4-phenyl-1,2,3,6-tetrahydropyridine]", "values": [{"measurement": "reduction of DA level in the putamen compared to D0", "setting": "striatal DA content; D6 group", "result": 42.7, "unit": "%"}, {"measurement": "depletion of DA in the putamen compared to D0", "setting": "striatal DA content; D12 group, asymptomatic", "result": 56.3, "unit": "%"}, {"measurement": "decrease of DA level in the putamen compared to D0", "setting": "striatal DA content; D25 group", "result": 97.9, "unit": "%"}, {"measurement": "parkinsonian score", "setting": "cynomolgus monkeys [1]; D6 group, 6 daily injections 0.2 mg/kg i.v.", "result": 0}, {"measurement": "parkinsonian score", "setting": "cynomolgus monkeys [1]; D12 group, 12 daily injections 0.2 mg/kg i.v.", "result": 0}, {"measurement": "parkinsonian score, median (range)", "setting": "cynomolgus monkeys [1]; D15 group, 15 injections 0.2 mg/kg i.v.", "result": "11 (range 10-14)"}, {"measurement": "parkinsonian score, median (range)", "setting": "cynomolgus monkeys [1]; D25 group, killed at day 25 after 15 injections", "result": "17 (range 15-19)"}, {"measurement": "PPE-A mRNA levels in striatum compared to D0", "setting": "PPE-A mRNA; D6 group", "result": "no significant difference"}, {"measurement": "PPE-A mRNA levels in striatum compared to D0", "setting": "PPE-A mRNA; D12 group, asymptomatic", "result": "sharp increase"}, {"measurement": "PPE-A mRNA levels in striatum compared to D0", "setting": "PPE-A mRNA; D15 group, mild parkinsonian symptoms", "result": "same distribution of increased levels"}, {"measurement": "PPE-A mRNA levels in striatum compared to D0", "setting": "PPE-A mRNA; D25 group, fully parkinsonian", "result": "pronounced increases"}, {"measurement": "mean duration of the bradykinesia test", "setting": "cynomolgus monkeys [2]; D6 group, D0 controls 3.0±0.4 s", "result": "2.4 ± 0.3", "unit": "s"}, {"measurement": "mean duration of the bradykinesia test", "setting": "cynomolgus monkeys [2]; D12 group, D0 controls 3.0±0.4 s", "result": "2.6 ± 0.5", "unit": "s"}, {"measurement": "mean duration of the bradykinesia test", "setting": "cynomolgus monkeys [2]; D15 group", "result": "19.9 ± 9.1", "unit": "s"}, {"measurement": "mean duration of the bradykinesia test", "setting": "cynomolgus monkeys [2]; D25 group, could not perform the test", "result": 60, "unit": "s"}]}]}
